The source of these data is patent publication US12060349B2, “Glucosylceramide synthase inhibitors” (Genzyme Corporation, priority 2012, dated 2024).

A word on the IC50: it is the concentration that gives 50% inhibition.

Like-named read-outs stand apart in the source and are kept apart here. Bounds are passed on as bounds.

Test [1] relates to GM3 expression on the cell surface, B16 mouse melanoma cells. Description: cell based phenotypic assay, cell surface GM3 by antibody mediated immunofluorescence, B16 (GM3 B16 IC50). Conditions: 50% inhibition of GM3 expression on the cell surface. In outline: (§1)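 Both lines undergo the phenotypic GM3 assay, and viability is recorded from that same cell-based run.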
The target in test [2] is T1, glucosylceramide synthase (Homo sapiens, UniProt Q16739).
T1 construct: Microsomes were isolated from A375 human melanoma cells; endogenous in cells; host or cells: A375 human melanoma cells (microsomal fraction, 100,000 g pellet)
T1 sequence (Q16739 1-394): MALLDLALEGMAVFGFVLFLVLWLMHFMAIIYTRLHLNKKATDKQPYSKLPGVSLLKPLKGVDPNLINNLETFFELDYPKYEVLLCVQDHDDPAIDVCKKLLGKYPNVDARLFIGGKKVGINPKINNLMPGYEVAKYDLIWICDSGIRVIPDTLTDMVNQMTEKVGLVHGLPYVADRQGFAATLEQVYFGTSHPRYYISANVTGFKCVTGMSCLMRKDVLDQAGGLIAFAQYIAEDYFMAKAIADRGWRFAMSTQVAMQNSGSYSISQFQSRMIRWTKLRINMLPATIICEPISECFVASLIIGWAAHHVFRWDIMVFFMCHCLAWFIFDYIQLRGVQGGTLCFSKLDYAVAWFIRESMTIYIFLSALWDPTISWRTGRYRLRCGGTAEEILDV
The test can be described thus: microsomal assay measuring conversion of ceramide to glucosylceramide by HPLC (GCS IC50). The test is classed as biochemical. Conditions: concentration causing 50% inhibition of glucosylceramide synthase activity. In outline:
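IC50 is the compound concentration halving glucosylceramide synthase activity. Activity was measured in microsomes, with HPLC quantifying glucosylceramide formed from ceramide.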

Another test has as its system B16 mouse melanoma cells. Description: cell viability in the B16 cell-based assay (Viability, B16 IC50). The method, boiled down:
(§2)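 Cell death was scored within the cell-based GM3 experiment for each line. The viability value is the concentration producing 50% death, and numbers exceeding 10 signify no cytotoxicity.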

The next test concerns C32 human melanoma cells. The test can be described thus: cell viability in the C32 cell-based assay (Viability, C32 IC50). Conditions: concentration causing 50% cell death, values greater than 10 represent a lack of cell death. In outline:
as §2

For test [3], the system named is GM3 expression on the cell surface, C32 human melanoma cells. Description: cell based phenotypic assay, cell surface GM3 by antibody mediated immunofluorescence, C32 (GM3 C32 IC50). Conditions: 50% inhibition of GM3 expression on the cell surface. In outline:
as §1

[4] abbreviates: Mus musculus, B16 mouse melanoma cells, read-out: GM3 B16 IC50.
The mark [5] stands for this setting: Mus musculus, B16, B16 cells, concentration causing 50% cell death, values greater than 10 represent a lack of cell death, read-out: Viability, B16 IC50.
[6] abbreviates: Homo sapiens, C32, C32 cells, read-out: Viability, C32 IC50.
Setting [7] is: Homo sapiens, C32 human melanoma cells, read-out: GM3 C32 IC50.

As for `CC1(NC(=O)C2CCN(c3ncc(F)c(-c4ccc(F)cc4)n3)CC2)CN2CCC1CC2` (stereo not drawn) [Example 54, 1-(5-Fluoro-4-(4-fluorophenyl)pyrimidin-2-yl)-N-(3-methylquinuclidin-3-yl)piperidine-4-carboxamide], the IC50 in test [1] (setting [4]) turned out to be 106 nM; in test [2] it was 0.734 nM; with B16 mouse melanoma cells (setting [5]), 5130 nM; with C32 human melanoma cells (setting [6]), 8040 nM; in test [3] (setting [7]), 0.0902 nM.

For `CC1(NC(=O)C2(F)CCN(c3ccc(Oc4ccc(F)cc4)nn3)CC2)CCN2CCC1CC2` (stereo not drawn) [Example 134, 4-Fluoro-1-(6-(4-fluorophenoxy)pyridazin-3-yl)-N-(4-methyl-1-azabicyclo[3.2.2]nonan-4-yl)piperidine-4-carboxamide], the IC50 in test [1] (setting [4]) was 343 nM; in test [2], 14.5 nM; in the test on B16 mouse melanoma cells (setting [5]), at least 10000 nM; in the test with C32 human melanoma cells (setting [6]), 1000 nM; in test [3] (setting [7]) it was 2.83 nM.

Consider `COCCOCc1ccc(-c2ccc(C3(NC(=O)OC4CCN5CCC4CC5)CC3)cc2)cc1` (stereo not drawn) [Example 204, 1-Azabicyclo[3.2.2]nonan-4-yl (1-(4′-((2-methoxyethoxy)methyl)-[1,1′-biphenyl]-4-yl)cyclopropyl)carbamate], for which the IC50 in test [1] (setting [4]) was 99.3 nM; in test [2], 43.3 nM; in the test with B16 mouse melanoma cells (setting [5]) it was at least 10000 nM; with C32 human melanoma cells (setting [6]), 1470 nM; in test [3] (setting [7]), 8.26 nM.

In the case of `COCCOc1ccc(Cc2cnc(N3CCC(F)(C(=O)NC4(C)CN5CCC4CC5)CC3)nc2)cc1` (stereo not drawn) [Example 136], the IC50 in test [1] (setting [4]) was 24.9 nM; in test [2] it was 7.9 nM; in the test on B16 mouse melanoma cells (setting [5]) it was at least 10000 nM; with C32 human melanoma cells (setting [6]), 1000 nM; in test [3] (setting [7]), 0.716 nM.

For `CC1(NC(=O)C2(F)CCN(c3nccc(Oc4ccc(F)cc4)n3)CC2)CCN2CCC1CC2` (stereo not drawn) [Example 116, 4-Fluoro-1-(4-(4-fluorophenoxy)pyrimidin-2-yl)-N-(4-methyl-1-azabicyclo[3.2.2]nonan-4-yl)piperidine-4-carboxamide], the IC50 in test [1] (setting [4]) was 15.9 nM; in test [2] it was 1.43 nM; in the test on B16 mouse melanoma cells (setting [5]) it was 5720 nM; in the test with C32 human melanoma cells (setting [6]), 100 nM; in test [3] (setting [7]), 0.155 nM.

`CC(C)(NC(=O)NC1(C)CN2CCC1CC2)c1cccc(Oc2cccc(C(=O)N3CCOCC3)c2)c1` (stereo not drawn) [Example 277, 1-(3-Methylquinuclidin-3-yl)-3-(2-(3-(3-(morpholine-4-carbonyl)phenoxy)phenyl)propan-2-yl)urea]: the IC50 was 2030 nM in test [1] (setting [4]); 91.7 nM in test [2]; at least 10000 nM with B16 mouse melanoma cells (setting [5]); at least 10000 nM with C32 human melanoma cells (setting [6]); 80.1 nM in test [3] (setting [7]).

For the compound `CC1(NC(=O)C2(O)CCN(c3nccc(-c4ccc(F)cc4)n3)CC2)CCN2CCC1CC2` (stereo not drawn) [Example 99, 1-(4-(4-Fluorophenyl)pyrimidin-2-yl)-4-hydroxy-N-(4-methyl-1-azabicyclo[3.2.2]nonan-4-yl)piperidine-4-carboxamide], the IC50 came to 12 nM in test [1] (setting [4]); 2.23 nM in test [2]; 3780 nM in the test on B16 mouse melanoma cells (setting [5]); 46.4 nM in the test with C32 human melanoma cells (setting [6]); 0.0552 nM in test [3] (setting [7]).

Turning to `CC(C)(NC(=O)N1CCN2CCC1CC2)c1ccc(-c2ccc(C(=O)N3CCOCC3)cc2)cc1` [Example 269, N-(2-(4′-(Morpholine-4-carbonyl)biphenyl-4-yl)propan-2-yl)-1,4-diazabicyclo[3.2.2]nonane-4-carboxamide], the IC50 was 2160 nM in test [1] (setting [4]); 23000 nM in test [2]; at least 10000 nM with B16 mouse melanoma cells (setting [5]); at least 10000 nM in the test on C32 human melanoma cells (setting [6]); 518 nM in test [3] (setting [7]).

Take `COCCOc1ccc(-c2ccc(C(C)(C)NC(=O)OC3CCN4CCC3CC4)cc2)nc1` (stereo not drawn) [Example 310, 1-Azabicyclo[3.2.2]nonan-4-yl 2-(4-(5-(2-methoxyethoxy)pyridin-2-yl)phenyl)propan-2-ylcarbamate]: the IC50 is 145 nM in test [1] (setting [4]); 123 nM in test [2]; at least 10000 nM in the test on B16 mouse melanoma cells (setting [5]); 3160 nM in the test on C32 human melanoma cells (setting [6]); 12.1 nM in test [3] (setting [7]).

For “1-(4-(4-(2-Methoxyethoxy)phenyl)-2-methylbut-3-yn-2-yl)-3-(3-propylquinuclidin-3-yl)urea [Example 330]”, the IC50 in test [1] (B16 mouse melanoma cells, read-out: GM3 B16 IC50) was 203 nM; in test [2], 104 nM; with B16 mouse melanoma cells (B16 cells, concentration causing 50% cell death, values greater than 10 represent a lack of cell death, read-out: Viability, B16 IC50), at least 10000 nM; in the test on C32 human melanoma cells (C32 cells, read-out: Viability, C32 IC50) it was 3160 nM; in test [3] (C32 human melanoma cells, read-out: GM3 C32 IC50), 6.41 nM.

For the compound `CC1(NC(=O)C2CCN(c3cccc(-c4cncnc4)c3)CC2)CCN2CCC1CC2` (stereo not drawn) [Example 40, N-(4-Methyl-1-azabicyclo[3.2.2]nonan-4-yl)-1-(3-(pyrimidin-5-yl)phenyl)piperidine-4-carboxamide], the IC50 was determined as 5500 nM in test [1] (setting [4]); 291 nM in test [2]; 71.3 nM in the test with B16 mouse melanoma cells (setting [5]); 1000 nM in the test on C32 human melanoma cells (setting [6]); 15.2 nM in test [3] (setting [7]).

In the case of `C#CC1CN(C(=O)NC2(C)CCN3CCC2CC3)CCN1c1nccc(-c2ccc(COC)cc2)n1` (stereo not drawn) [Example 153, 3-Ethynyl-4-(4-(4-(methoxymethyl)phenyl)pyrimidin-2-yl)-N-(4-methyl-1-azabicyclo[3.2.2]nonan-4-yl)piperazine-1-carboxamide], the IC50 in test [1] (setting [4]) was 2640 nM; in test [2], 53.4 nM; in the test with B16 mouse melanoma cells (setting [5]) it was at least 10000 nM; with C32 human melanoma cells (setting [6]) it was 1000 nM; in test [3] (setting [7]), 11.7 nM.

Take `O=C(NC1(c2ccc(-c3ccc(COCc4cncnc4)cc3)cc2)CC1)OC1CCN2CCC1CC2` (stereo not drawn) [Example 221, 1-Azabicyclo[3.2.2]nonan-4-yl (1-(4′-((pyrimidin-5-ylmethoxy)methyl)-[1,1′-biphenyl]-4-yl)cyclopropyl)carbamate]: the IC50 in test [1] (setting [4]) was 99.2 nM; in test [2] it was 52.1 nM; in the test on B16 mouse melanoma cells (setting [5]), at least 10000 nM; with C32 human melanoma cells (setting [6]), at least 10000 nM; in test [3] (setting [7]), 21.1 nM.

As to `CN(C)C(=O)c1ccc(-c2ccc(C(C)(C)NC(=O)NC3(C)CCN4CCC3CC4)cc2)cc1` (stereo not drawn) [Example 261, N,N-Dimethyl-4′-(2-(3-(4-methyl-1-azabicyclo[3.2.2]nonan-4-yl)ureido)propan-2-yl)biphenyl-4-carboxamide], the IC50 is 354 nM in test [1] (setting [4]); 60.8 nM in test [2]; at least 10000 nM in the test on B16 mouse melanoma cells (setting [5]); 3160 nM with C32 human melanoma cells (setting [6]); 14.1 nM in test [3] (setting [7]).

Take `CC1(NC(=O)C2CCN(c3cc(-c4ccc(F)cc4)ccn3)CC2)CCN2CCC1CC2` (stereo not drawn) [Example 106, 1-(4-(4-Fluorophenyl)pyridin-2-yl)-N-(4-methyl-1-azabicyclo[3.2.2]nonan-4-yl)piperidine-4-carboxamide]: the IC50 was found to be 15.3 nM in test [1] (setting [4]); 0.858 nM in test [2]; 6970 nM with B16 mouse melanoma cells (setting [5]); 9020 nM with C32 human melanoma cells (setting [6]); 0.095 nM in test [3] (setting [7]).

As for `CC1(NC(=O)C2(F)CCN(c3ncnc(OCc4ccc(F)cc4)n3)CC2)CCN2CCC1CC2` (stereo not drawn) [Example 128, 4-Fluoro-1-(4-((4-fluorobenzyl)oxy)-1,3,5-triazin-2-yl)-N-(4-methyl-1-azabicyclo[3.2.2]nonan-4-yl)piperidine-4-carboxamide], the IC50 in test [1] (setting [4]) is 654 nM; in test [2] it was 19.8 nM; with B16 mouse melanoma cells (setting [5]) it was at least 10000 nM; in the test on C32 human melanoma cells (setting [6]), 1000 nM; in test [3] (setting [7]) it was 3.4 nM.

Take `CNC(=O)c1ccc(Oc2ccc(C(C)(C)NC(=O)OC3CN4CCC3CC4)cc2)cc1` (stereo not drawn) [Example 291, Quinuclidin-3-yl 2-(4-(4-(methylcarbamoyl)phenoxy)phenyl)propan-2-ylcarbamate]: the IC50 in test [1] (Mus musculus, read-out: GM3 B16 IC50, B16 mouse melanoma cells) was 2310 nM; in test [2], 1910 nM; in the test with B16 mouse melanoma cells (Mus musculus, B16, read-out: Viability, B16 IC50), at least 10000 nM; in the test on C32 human melanoma cells (Homo sapiens, C32, read-out: Viability, C32 IC50, C32 cells) it was 3160 nM; in test [3] (Homo sapiens, read-out: GM3 C32 IC50, C32 human melanoma cells), 90.2 nM.

As for `CCC1(NC(=O)NC(C)(C)C#Cc2ccc(CCOC)cc2)CN2CCC1CC2` (stereo not drawn) [Example 325, 1-(3-Ethylquinuclidin-3-yl)-3-(4-(4-(2-methoxyethyl)phenyl)-2-methylbut-3-yn-2-yl)urea], the IC50 is 399 nM in test [1] (setting [4]); 92 nM in test [2]; at least 10000 nM in the test on B16 mouse melanoma cells (setting [5]); at least 10000 nM in the test on C32 human melanoma cells (setting [6]); 7.94 nM in test [3] (setting [7]).
